In the assay the target is Recombinant human ULK1 (1-649) (Homo sapiens (Human), UniProt O75385). Description: ULK1 ADP Glo kinase activity assay, new method (ULKtide peptide substrate). To be noted: 25° C., 40 minutes, read-out: ULK1 biochemical IC50. In a few lines:
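GST-tagged human ULK1 (1-649) from Sf9 cells was reacted with ULKtide peptide and ATP for 40 min at 25 °C across 12-point compound dilutions from 10 μM. ADP formed was quantified by ADP-Glo luminescence; IC50 came from four-parameter fits relative to DMSO controls.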

This note sets out measurements from patent US20250144094A1 (Erasca, Inc., priority 2021, published 2025).

Recombinant human ULK1 (1-649), sequence (O75385 1-649): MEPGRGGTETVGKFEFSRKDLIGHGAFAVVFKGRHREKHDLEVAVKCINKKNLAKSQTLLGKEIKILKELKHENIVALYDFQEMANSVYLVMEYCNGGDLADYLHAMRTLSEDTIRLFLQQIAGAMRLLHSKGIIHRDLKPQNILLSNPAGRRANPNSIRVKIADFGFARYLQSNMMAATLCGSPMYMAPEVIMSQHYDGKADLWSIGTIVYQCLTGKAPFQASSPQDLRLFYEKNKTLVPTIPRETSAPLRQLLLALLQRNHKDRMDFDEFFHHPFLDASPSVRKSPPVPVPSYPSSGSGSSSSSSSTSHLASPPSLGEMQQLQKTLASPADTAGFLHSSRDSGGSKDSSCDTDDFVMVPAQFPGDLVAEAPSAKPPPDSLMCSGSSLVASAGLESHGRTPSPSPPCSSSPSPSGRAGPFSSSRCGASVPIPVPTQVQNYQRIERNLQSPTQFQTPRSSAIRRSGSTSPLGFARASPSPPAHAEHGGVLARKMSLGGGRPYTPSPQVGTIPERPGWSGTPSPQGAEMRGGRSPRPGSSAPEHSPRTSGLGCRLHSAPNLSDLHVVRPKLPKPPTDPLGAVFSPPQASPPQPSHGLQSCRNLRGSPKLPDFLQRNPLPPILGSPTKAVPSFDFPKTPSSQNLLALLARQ

Turning to `O=C1c2sc(-c3nc(Nc4cc5c(cc4Cl)CN(CCF)CC5)ncc3C(F)(F)F)cc2S(=O)(=O)CCN1C1CC1` [Example 227, 7-(2-((7-chloro-2-(2-fluoroethyl)-1,2,3,4-tetrahydroisoquinolin-6-yl)amino)-5-(trifluoromethyl)pyrimidin-4-yl)-4-cyclopropyl-3,4-dihydrothieno[2,3-f][1,4]thiazepin-5(2H)-one 1,1-dioxide], the IC50 was no more than 5 nM.

As to `CCc1cc2c(cc1Nc1ncc(C(F)(F)F)c(-c3cc4c(s3)C(=O)N(C3CC3)CCS4(=O)=O)n1)CCN(CC)C2` [Example 228, 4-cyclopropyl-7-(2-((2,7-diethyl-1,2,3,4-tetrahydroisoquinolin-6-yl)amino)-5-(trifluoromethyl)pyrimidin-4-yl)-3,4-dihydrothieno[2,3-f][1,4]thiazepin-5(2H)-one 1,1-dioxide], the IC50 is no more than 5 nM.

`O=C1c2sc(-c3nc(Nc4cc5c(cc4Cl)CCNC5)ncc3C(F)(F)F)cc2S(=O)(=O)CCN1C1COC1` [Example 230, 7-(2-((6-chloro-1,2,3,4-tetrahydroisoquinolin-7-yl)amino)-5-(trifluoromethyl)pyrimidin-4-yl)-4-(oxetan-3-yl)-3,4-dihydrothieno[2,3-f][1,4]thiazepin-5(2H)-one 1,1-dioxide]: the IC50 was no more than 5 nM. Take `CN1CCS(=O)(=O)c2cc(-c3nc(Nc4cc5c(cc4C4CC4)CCNC5)ncc3C(F)(F)F)sc2C1=O` [Example 231, 7-(2-((6-cyclopropyl-1,2,3,4-tetrahydroisoquinolin-7-yl)amino)-5-(trifluoromethyl)pyrimidin-4-yl)-4-methyl-3,4-dihydrothieno[2,3-f][1,4]thiazepin-5(2H)-one 1,1-dioxide]: the IC50 is no more than 5 nM. Regarding `O=C1c2sc(-c3nc(Nc4cc5c(cc4C4CC4)CCNC5)ncc3C(F)(F)F)cc2S(=O)(=O)CCN1CC(F)(F)F` [Example 232, 7-(2-((6-cyclopropyl-1,2,3,4-tetrahydroisoquinolin-7-yl)amino)-5-(trifluoromethyl)pyrimidin-4-yl)-4-(2,2,2-trifluoroethyl)-3,4-dihydrothieno[2,3-f][1,4]thiazepin-5(2H)-one 1,1-dioxide], the IC50 is no more than 5 nM.

Turning to `CCN1CCc2cc(Nc3ncc(C(F)(F)F)c(-c4cc5c(s4)C(=O)N(C4CC4)CCS5(=O)=O)n3)c(C3CC3)cc2C1` [Example 233, 4-cyclopropyl-7-(2-((7-cyclopropyl-2-ethyl-1,2,3,4-tetrahydroisoquinolin-6-yl)amino)-5-(trifluoromethyl)pyrimidin-4-yl)-3,4-dihydrothieno[2,3-f][1,4]thiazepin-5(2H)-one 1,1-dioxide], the IC50 was no more than 5 nM. With `O=C1c2sc(-c3nc(Nc4cc5c(cc4C4CC4)CN(CC4COC4)CC5)ncc3C(F)(F)F)cc2S(=O)(=O)CCN1C1CC1` [Example 234, 4-cyclopropyl-7-(2-((7-cyclopropyl-2-(oxetan-3-ylmethyl)-1,2,3,4-tetrahydroisoquinolin-6-yl)amino)-5-(trifluoromethyl)pyrimidin-4-yl)-3,4-dihydrothieno[2,3-f][1,4]thiazepin-5(2H)-one 1,1-dioxide], the IC50 is no more than 5 nM. The result for `O=C1c2sc(-c3nc(Nc4cc5c(cc4C4CC4)CN(CC4CC4)CC5)ncc3C(F)(F)F)cc2S(=O)(=O)CCN1C1CC1` [Example 235, 4-cyclopropyl-7-(2-((7-cyclopropyl-2-(cyclopropylmethyl)-1,2,3,4-tetrahydroisoquinolin-6-yl)amino)-5-(trifluoromethyl)pyrimidin-4-yl)-3,4-dihydrothieno[2,3-f][1,4]thiazepin-5(2H)-one 1,1-dioxide] reads no more than 5 nM; that for `CN1CCS(=O)(=O)c2cc(-c3nc(Nc4cc5c(cc4C4CC4)CN(CCF)CC5)ncc3C(F)(F)F)sc2C1=O` [Example 236, 7-(2-((7-cyclopropyl-2-(2-fluoroethyl)-1,2,3,4-tetrahydroisoquinolin-6-yl)amino)-5-(trifluoromethyl)pyrimidin-4-yl)-4-methyl-3,4-dihydrothieno[2,3-f][1,4]thiazepin-5(2H)-one 1,1-dioxide], no more than 5 nM.
